Laboratory results published in US12678518B2, “Theranostic probe and its use for targeting and/or labeling the EGFR kinase and/or the cells expressing EGFR or its family members” (Tianjin University, priority 2019, dated 2026).

Legend:
EGFR dimers (wild type) = molecular target: T1, EGFR dimers (wild type) (Homo sapiens, UniProt P00533); assay: Protein complementary assay (split YFP), PDCy3 binding to EGFR dimers, wild type; format: cell-based; conditions: wild type receptor pair, 1 μM PDCy3
T1 construct: one encoding human EGFR(1-998) fused with a split YFP-N(1-172) fragment; the other encoding hEGFR(1-998) linked to a split YFP-C(155-238) fragment; expressed in transfected cells; host or cells: HEK 293T
Source text: Protein complementary assay. For protein complementary assay, we designed two complementary constructs: one encoding human EGFR(1-998) fused with a split YFP-N(1-172) fragment, and the other encoding hEGFR(1-998) linked to a split YFP-C(155-238) fragment. Kinase mutations were introduced on both constructs to make a complementary pair. All the constructs were verified by sequencing. The paired constructs encoding the same receptor were co-transfected into HEK 293T cells. Transfected cells were starved in EX-Cell 293 Serum-Free Medium for 44 hours before treatment with 1 μM PDCy3 for additional 4 hours. The dimerization of the EGF receptors and the binding of dimerized receptors to PDCy3 were analyzed by flowcytometry.
To further investigate how EGFR kinase dimerization affects PDCy3 binding, we did a protein complementary assay. In the assay, split YFP fragments were individually fused to the C-terminus of the full length EGFR, and EGF kinase dimerization was reported by the fluorescence of assembled YPF from co-transfected receptors (FIG. 4A)^23. As shown in the FIG. 4B, the cells with co-expressed EGFR dimers could be divided into two populations. In one population, the quantity of bound PDCy3 increased linearly as a function of the expression levels of EGFR dimers (FIG. 4C). But in the other population, the quantity of bound PDCy3 was independent of the expressed EGFR dimers. […]

[1] = system: cells in void urine samples from prostate cancer patients; assay: Cytometry of urine samples from cancer patients; format: cell-based, human; conditions: for highest relative bound fraction from other samples: other subjects
Description: Cytometry of urine samples from cancer patients. 10-15 mL void urine sample was collected from each cancer patient. The cells in those samples were collected by centrifugation at […] for 10 minutes at 4° C., and were re-suspended in PBS. Then, the cells from each sample were divided into three aliquots: one was used in cytometry; another was used in RT-qPCR; and the rest was mixed with cryo-protectant (80% FBS and 20% DMSO) at 1:1 ratio, and stored in liquid nitrogen. The cells used for cytometry were incubated with 0, 0.5, 1, and 5 μM PDCy3, respectively, on ice for 20 minutes in the dark, and then were analyzed by flowcytometry.
The urine samples were labeled with 0.0, 0.5, 1.0, and 5.0 μM probe, respectively, at 4° C. for half an hour, and then were subjected to FACS analysis. Different cell populations could be distinguished by their side scattering and fluorescent intensity of bound probes (FIG. 6A). […] At 0.5 μM of the probe, the relative bound probe to this sample was 13.6 times higher than the average of others. In addition, the fractions of bound probe at […] relative to the one at 5.0 μM concentration were 0.28 and 0.30, respectively. In contrast, the highest relative bound fractions at 0.5 and 1.0 μM probe from other samples were 0.1 and 0.16, respectively.

EGFR = EGFR (Homo sapiens, UniProt P00533); assay: Inhibition of the EGF receptor kinase activity (EGFR phosphorylation, western blotting); conditions: EGFR-transfected HEK293T cells, 10 minutes
Sequence of EGFR (P00533 25-1012): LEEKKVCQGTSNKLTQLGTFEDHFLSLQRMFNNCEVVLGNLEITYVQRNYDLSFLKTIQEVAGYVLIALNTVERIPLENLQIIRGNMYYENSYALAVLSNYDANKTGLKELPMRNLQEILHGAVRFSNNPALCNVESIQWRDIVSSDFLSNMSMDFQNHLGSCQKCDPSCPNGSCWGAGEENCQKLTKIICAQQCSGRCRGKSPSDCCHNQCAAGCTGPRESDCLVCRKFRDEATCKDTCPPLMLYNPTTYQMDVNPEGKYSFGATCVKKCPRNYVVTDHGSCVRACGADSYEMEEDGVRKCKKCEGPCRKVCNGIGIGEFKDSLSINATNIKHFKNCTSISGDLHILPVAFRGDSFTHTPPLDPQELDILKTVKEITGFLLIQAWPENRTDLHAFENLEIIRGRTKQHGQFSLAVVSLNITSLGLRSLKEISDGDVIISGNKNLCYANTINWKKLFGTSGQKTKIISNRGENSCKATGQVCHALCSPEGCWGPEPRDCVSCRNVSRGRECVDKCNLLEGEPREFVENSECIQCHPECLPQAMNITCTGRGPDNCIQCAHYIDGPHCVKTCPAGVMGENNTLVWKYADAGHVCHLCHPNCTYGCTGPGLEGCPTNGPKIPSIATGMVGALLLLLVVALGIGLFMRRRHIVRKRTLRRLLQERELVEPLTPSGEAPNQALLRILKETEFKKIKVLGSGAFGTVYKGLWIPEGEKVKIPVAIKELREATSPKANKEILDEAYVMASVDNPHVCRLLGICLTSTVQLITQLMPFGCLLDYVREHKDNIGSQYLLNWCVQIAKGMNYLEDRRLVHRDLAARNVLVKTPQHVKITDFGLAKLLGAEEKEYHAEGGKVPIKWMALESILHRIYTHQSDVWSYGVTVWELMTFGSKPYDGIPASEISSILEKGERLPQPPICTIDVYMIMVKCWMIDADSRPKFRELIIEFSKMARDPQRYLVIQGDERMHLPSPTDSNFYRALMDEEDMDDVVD
Description: Inhibition of the EGF receptor kinase activity. […] Treated cells were lysed by mixing with 40 μl/well lysis buffer (50 mM Tris, pH 7.5, 150 mM NaCl, 1% TritonX-100, 1% sodium deoxycholate, 0.1% SDS, 10 mM EDTA, 1 mM Na3VO4, 2 mM PMSF). […] The supernatants were mixed with 6×SDS sample buffer, and were subjected to SDS-PAGE and Western blotting analysis. The expression and phosphorylation levels of EGFR were detected by 4G10 and anti-Protein C antibodies, respectively, in western blotting.
In the assay, EGFR-transfected HEK293T cells were treated with the PDCy3 probe at different concentrations for 10 minutes in the presence and absence of 10 nM EGF. The expression and phosphorylation levels of the EGF receptor were detected and analyzed by western blotting.
Inhibition of the EGF receptor kinase activity. […] Treated cells were lysed by mixing with 40 μL/well lysis buffer (50 mM Tris, pH 7.5, 150 mM NaCl, 1% Triton X-100, 1% sodium deoxycholate, 0.1% SDS, 10 mM EDTA, 1 mM Na3VO4, 2 mM PMSF). […] The expression and phosphorylation levels of EGFR were detected by 4G10 and anti-Protein C antibodies, respectively, in western blotting.
In the assay, EGFR-transfected HEK293T cells were treated with PDCy3 at different concentrations for 10 minutes in the presence or absence of 10 nM EGF. The expression and phosphorylation levels of EGFR were detected and analyzed by western blotting.

T1 sequence (P00533 25-1022): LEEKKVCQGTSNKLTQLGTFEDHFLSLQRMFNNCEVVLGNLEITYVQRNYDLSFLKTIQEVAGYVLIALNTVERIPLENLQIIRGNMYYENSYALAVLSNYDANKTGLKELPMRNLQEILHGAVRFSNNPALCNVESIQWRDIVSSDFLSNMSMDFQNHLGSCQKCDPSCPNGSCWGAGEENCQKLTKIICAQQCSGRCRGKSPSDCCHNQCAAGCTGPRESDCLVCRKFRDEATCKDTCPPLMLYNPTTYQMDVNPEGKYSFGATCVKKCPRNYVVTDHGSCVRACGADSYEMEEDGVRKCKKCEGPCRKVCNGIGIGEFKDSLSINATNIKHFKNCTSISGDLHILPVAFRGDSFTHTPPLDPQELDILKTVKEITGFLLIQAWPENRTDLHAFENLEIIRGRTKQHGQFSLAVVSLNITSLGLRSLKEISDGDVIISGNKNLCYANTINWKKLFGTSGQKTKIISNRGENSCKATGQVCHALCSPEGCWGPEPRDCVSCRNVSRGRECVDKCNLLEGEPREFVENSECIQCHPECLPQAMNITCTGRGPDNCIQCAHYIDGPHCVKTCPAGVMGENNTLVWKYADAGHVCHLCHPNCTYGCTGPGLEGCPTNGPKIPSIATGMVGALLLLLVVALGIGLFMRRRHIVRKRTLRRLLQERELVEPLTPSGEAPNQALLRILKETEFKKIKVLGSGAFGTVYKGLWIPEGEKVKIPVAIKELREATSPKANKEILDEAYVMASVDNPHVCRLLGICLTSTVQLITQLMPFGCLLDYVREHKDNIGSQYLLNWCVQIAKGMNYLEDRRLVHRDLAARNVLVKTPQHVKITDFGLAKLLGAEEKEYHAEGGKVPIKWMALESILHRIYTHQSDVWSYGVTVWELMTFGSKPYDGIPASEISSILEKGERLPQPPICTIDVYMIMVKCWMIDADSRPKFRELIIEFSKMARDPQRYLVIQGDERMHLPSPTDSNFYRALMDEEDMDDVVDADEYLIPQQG
T1 sequence (P00533 25-1022): as above

fraction of the population with the higher sensitivity to PDCy3 (population A) (EGFR dimers (wild type)): 38.4%
concentration at which EGFR kinase activity was completely inhibited (EGFR; presence and absence of 10 nM EGF, western blotting): 20 µM
Compound: CN1/C(=C/C=C/C2=[N+](CCCCCC(=O)NCCC/C=C/C(=O)Nc3ccc4ncnc(Nc5cccc(Br)c5)c4c3)c3ccc(S(=O)(=O)O)cc3C2(C)C)C(C)(C)c2cc(S(=O)(=O)[O-])ccc21 [PDCy3, 1-(6-((E)-6-(4-(3-bromophenylamino)quinazolin-6-ylamino)-6-oxohex-4-enylamino)-6-oxohexyl)-3,3-dimethyl-2-((1E,3E)-3-(1,3,3-trimethyl-5-sulfonatoindolin-2-ylidene)prop-1-enyl)-3H-indolium-5-sulfonate]
relative bound probe, sample of subject 4 versus the average of others ([1]; 0.5 μM probe): 13.6 times
highest relative bound fraction from other samples ([1]; 0.5 μM probe): 0.1
highest relative bound fraction from other samples ([1]; 1.0 μM probe): 0.16
fraction of bound probe relative to the one at 5.0 μM concentration ([1]; subject 4, 0.5 μM probe): 0.28
fraction of bound probe relative to the one at 5.0 μM concentration ([1]; subject 4, 1.0 μM probe): 0.30
inhibition of EGFR kinase activity (in words) (EGFR; different concentrations): inhibit the kinase activity of EGFR in a dose dependent manner
